The experiment addresses NAMPT (Homo sapiens, UniProt P43490). Nature of the experiment: cell-free coupled-enzyme colorimetric assay with recombinant NAMPT. The class given is biochemical.

One compound from paper PMC5010932 (Molecular cancer therapeutics, 2016) can be followed below.

NAMPT, sequence (P43490 whole entry): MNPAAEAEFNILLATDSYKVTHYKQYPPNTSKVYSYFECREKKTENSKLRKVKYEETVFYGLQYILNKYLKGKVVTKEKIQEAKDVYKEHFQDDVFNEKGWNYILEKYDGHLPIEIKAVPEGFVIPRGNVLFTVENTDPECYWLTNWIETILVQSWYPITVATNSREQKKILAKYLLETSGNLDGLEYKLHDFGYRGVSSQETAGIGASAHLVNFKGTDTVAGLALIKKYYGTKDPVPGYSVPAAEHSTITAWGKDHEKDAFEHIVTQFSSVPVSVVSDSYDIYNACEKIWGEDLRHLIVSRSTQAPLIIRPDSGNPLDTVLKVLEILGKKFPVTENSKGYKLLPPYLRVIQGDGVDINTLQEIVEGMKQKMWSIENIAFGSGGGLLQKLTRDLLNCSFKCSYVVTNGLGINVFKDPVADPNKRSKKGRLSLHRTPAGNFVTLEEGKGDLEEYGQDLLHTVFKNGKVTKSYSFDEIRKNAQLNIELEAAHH

Consider `Nc1ccc(/C=C/C(=O)NCc2cc3cc(-c4ccc(C(=O)N5CCC(F)(F)CC5)cc4)cc(-c4ccc(F)cc4)c3o2)cn1` [KPT-9274], for which the IC50 (commonly the midpoint of a concentration-inhibition curve) is approximately 120 nM.
